# Legend:
# pigweed, palmer [1] = test: Test A preemergence; assay type: in vivo, Amaranthus palmeri
# Method in brief: (§1)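 Plants were grown in loam and sand and treated preemergence or postemergence (one- to two-leaf stage, 2–10 cm) with compound in solvent plus surfactant. Response was scored against untreated controls after 10 greenhouse days, where 0 means no effect and 100 complete control.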
# barnyardgrass = test: Test B flooded paddy test; assay type: in vivo, Echinochloa crus-galli; conditions: 250 g ai/ha, Flood, 13 days, 0 to 100 scale (0 no effect, 100 complete control)
# Method in brief: (§2)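 Application into standing water (3 cm above soil) at the two-leaf stage; flood depth held constant. Evaluation: day 13, visual comparison with controls, 0 = no injury, 100 = complete control.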
# kochia [2] = test: Test A preemergence; assay type: in vivo, Bassia scoparia
# Method in brief: as §1
# horseweed = test: Test A postemergence; assay type: in vivo, Erigeron canadensis; conditions: postemergence, 10 days; for Plant response rating, Horseweed: visual injury, 0 to 100 scale (0 no effect, 100 complete control)
# Method in brief: as §1
# goosegrass [3] = test: Test A preemergence; assay type: in vivo, Eleusine indica
# Method in brief: as §1
# ryegrass, Italian [4] = test: Test A preemergence; assay type: in vivo, Lolium multiflorum
# Method in brief: as §1
# ryegrass, Italian [5] = test: Test A postemergence; assay type: in vivo, Lolium multiflorum; conditions: postemergence, 10 days; for Plant response rating, Ryegrass, Italian: 500 g ai/ha, visual injury, 0 to 100 scale (0 no effect, 100 complete control)
# Method in brief: as §1
# ducksalad = test: Test B flooded paddy test; assay type: in vivo, Heteranthera limosa; conditions: 250 g ai/ha, Flood, 13 days, 0 to 100 scale (0 no effect, 100 complete control)
# Method in brief: as §2
# wheat [6] = test: Test A postemergence; assay type: in vivo, Triticum aestivum; conditions: postemergence, 10 days; for Plant response rating, Wheat: 500 g ai/ha, visual injury, 0 to 100 scale (0 no effect, 100 complete control)
# Method in brief: as §1
# rice = test: Test B flooded paddy test; assay type: in vivo, Oryza sativa; conditions: 250 g ai/ha, Flood, 13 days, 0 to 100 scale (0 no effect, 100 complete control)
# Method in brief: as §2
# wheat [7] = test: Test A preemergence; assay type: in vivo, Triticum aestivum
# Method in brief: as §1
# soybean [8] = test: Test A preemergence; assay type: in vivo, Glycine max
# Method in brief: as §1
# foxtail, giant [9] = test: Test A preemergence; assay type: in vivo, Setaria faberi
# Method in brief: as §1
# blackgrass [10] = test: Test A postemergence; assay type: in vivo, Alopecurus myosuroides
# Method in brief: as §1
# oat, wild [11] = test: Test A preemergence; assay type: in vivo, Avena fatua
# Method in brief: as §1
# corn [12] = test: Test A preemergence; assay type: in vivo, Zea mays
# Method in brief: as §1
# ragweed [13] = test: Test A preemergence; assay type: in vivo, Ambrosia artemisiifolia
# Method in brief: as §1
# pigweed, palmer [14] = test: Test A postemergence; assay type: in vivo, Amaranthus palmeri; conditions: postemergence, 10 days; for Plant response rating, Pigweed, Palmer: 500 g ai/ha, visual injury, 0 to 100 scale (0 no effect, 100 complete control)
# Method in brief: as §1
# soybean [15] = test: Test A postemergence; assay type: in vivo, Glycine max; conditions: postemergence, 10 days; for Plant response rating, Soybean: 500 g ai/ha, visual injury, 0 to 100 scale (0 no effect, 100 complete control)
# Method in brief: as §1
# galium = test: Test A postemergence; assay type: in vivo, Galium aparine; conditions: postemergence, 10 days, visual injury, 0 to 100 scale (0 no effect, 100 complete control)
# Method in brief: as §1
# oat, wild [16] = test: Test A postemergence; assay type: in vivo, Avena fatua; conditions: postemergence, 10 days; for Plant response rating, Oat, Wild: 500 g ai/ha, visual injury, 0 to 100 scale (0 no effect, 100 complete control)
# Method in brief: as §1
# ragweed [17] = test: Test A postemergence; assay type: in vivo, Ambrosia artemisiifolia; conditions: postemergence, 10 days; for Plant response rating, Ragweed: 500 g ai/ha, visual injury, 0 to 100 scale (0 no effect, 100 complete control)
# Method in brief: as §1
# goosegrass [18] = test: Test A postemergence; assay type: in vivo, Eleusine indica; conditions: postemergence, 10 days; for Plant response rating, Goosegrass: visual injury, 0 to 100 scale (0 no effect, 100 complete control)
# Method in brief: as §1
# sedge, umbrella = test: Test B flooded paddy test; assay type: in vivo, Cyperus difformis; conditions: 250 g ai/ha, Flood, 13 days, 0 to 100 scale (0 no effect, 100 complete control)
# Method in brief: as §2
# corn [19] = test: Test A postemergence; assay type: in vivo, Zea mays; conditions: postemergence, 10 days; for Plant response rating, Corn: visual injury, 0 to 100 scale (0 no effect, 100 complete control)
# Method in brief: as §1
# foxtail, giant [20] = test: Test A postemergence; assay type: in vivo, Setaria faberi; conditions: postemergence, 10 days; for Plant response rating, Foxtail, Giant: visual injury, 0 to 100 scale (0 no effect, 100 complete control)
# Method in brief: as §1
# kochia [21] = test: Test A postemergence; assay type: in vivo, Bassia scoparia; conditions: postemergence, 10 days; for Plant response rating, Kochia: visual injury, 0 to 100 scale (0 no effect, 100 complete control)
# Method in brief: as §1
# blackgrass [22] = test: Test A preemergence; assay type: in vivo, Alopecurus myosuroides
# Method in brief: as §1
# [23] = 125 g ai/ha, visual injury after 10 days, 0 to 100 scale, 0 is no effect, 100 is complete control
# [24] = 500 g ai/ha, 0 to 100 scale (0 no effect, 100 complete control), 10 days
# [25] = 125 g ai/ha, 0 to 100 scale, 0 no effect, 100 complete control
compound,measurement,setting,value
CC(C)c1ncn(-c2cccc(C(=O)N3C[C@H](C)Oc4c(Cl)cccc43)c2)n1 [Compound 78],"Plant response rating, Pigweed, Palmer","pigweed, palmer [1]; [23]",100
same,"Plant response rating, Pigweed, Palmer","pigweed, palmer [1]; [24]",100
same,"Plant response rating, Barnyardgrass",barnyardgrass,0
same,"Plant response rating, Kochia",kochia [2]; [23],90
same,"Plant response rating, Kochia",kochia [2]; [24],100
same,"Plant response rating, Horseweed",horseweed; 125 g ai/ha,0
same,"Plant response rating, Horseweed",horseweed; 500 g ai/ha,0
same,"Plant response rating, Goosegrass",goosegrass [3]; [23],90
same,"Plant response rating, Goosegrass",goosegrass [3]; [24],100
same,"Plant response rating, Ryegrass, Italian","ryegrass, Italian [4]; [23]",90
same,"Plant response rating, Ryegrass, Italian","ryegrass, Italian [4]; [24]",100
same,"Plant response rating, Ryegrass, Italian","ryegrass, Italian [5]",100
same,"Plant response rating, Ducksalad",ducksalad,75
same,"Plant response rating, Wheat",wheat [6],50
same,"Plant response rating, Rice",rice,0
same,"Plant response rating, Wheat",wheat [7]; [23],20
same,"Plant response rating, Wheat",wheat [7]; [24],80
same,"Plant response rating, Soybean",soybean [8]; [23],0
same,"Plant response rating, Soybean",soybean [8]; [24],100
same,"Plant response rating, Foxtail, Giant","foxtail, giant [9]; [23]",100
same,"Plant response rating, Foxtail, Giant","foxtail, giant [9]; [24]",100
same,"Plant response rating, Blackgrass","blackgrass [10]; 125 g ai/ha, postemergence, 10 days, visual injury, 0 to 100 scale (0 no effect, 100 complete control)",50
same,"Plant response rating, Blackgrass","blackgrass [10]; 500 g ai/ha, Postemergence, 0 to 100 scale",90
same,"Plant response rating, Oat, Wild","oat, wild [11]; [23]",80
same,"Plant response rating, Oat, Wild","oat, wild [11]; [24]",90
same,"Plant response rating, Corn",corn [12]; [23],30
same,"Plant response rating, Corn",corn [12]; [24],30
same,"Plant response rating, Ragweed",ragweed [13]; [23],0
same,"Plant response rating, Ragweed",ragweed [13]; [24],90
same,"Plant response rating, Pigweed, Palmer","pigweed, palmer [14]",90
same,"Plant response rating, Soybean",soybean [15],100
same,"Plant response rating, Galium",galium; 125 g ai/ha,100
same,"Plant response rating, Galium",galium; 500 g ai/ha,100
same,"Plant response rating, Oat, Wild","oat, wild [16]",90
same,"Plant response rating, Ragweed",ragweed [17],80
same,"Plant response rating, Goosegrass",goosegrass [18]; 125 g ai/ha,40
same,"Plant response rating, Goosegrass",goosegrass [18]; 500 g ai/ha,80
same,"Plant response rating, Sedge, Umbrella","sedge, umbrella",0
same,"Plant response rating, Corn",corn [19]; 125 g ai/ha,10
same,"Plant response rating, Corn",corn [19]; 500 g ai/ha,60
same,"Plant response rating, Foxtail, Giant","foxtail, giant [20]; 125 g ai/ha",50
same,"Plant response rating, Foxtail, Giant","foxtail, giant [20]; 500 g ai/ha",90
same,"Plant response rating, Kochia",kochia [21]; 125 g ai/ha,70
same,"Plant response rating, Kochia",kochia [21]; 500 g ai/ha,100
COc1ccc(-n2cnc(C)n2)cc1C(=O)N1C[C@H](C)Oc2c(Cl)cccc21 [Compound 89],"Plant response rating, Pigweed, Palmer","pigweed, palmer [1]; [23]",90
same,"Plant response rating, Pigweed, Palmer","pigweed, palmer [1]; [24]",100
same,"Plant response rating, Barnyardgrass",barnyardgrass,60
same,"Plant response rating, Kochia",kochia [2]; [23],70
same,"Plant response rating, Kochia",kochia [2]; [24],100
same,Horseweed plant response rating,horseweed; [25],20
same,"Plant response rating, Horseweed",horseweed; 500 g ai/ha,40
same,"Plant response rating, Goosegrass",goosegrass [3]; [23],100
same,"Plant response rating, Goosegrass",goosegrass [3]; [24],100
same,"Plant response rating, Ryegrass, Italian","ryegrass, Italian [4]; [23]",90
same,"Plant response rating, Ryegrass, Italian","ryegrass, Italian [4]; [24]",100
same,"Ryegrass, Italian plant response rating","ryegrass, Italian [5]; [25]",100
same,"Plant response rating, Ryegrass, Italian","ryegrass, Italian [5]",100
same,"Plant response rating, Blackgrass",blackgrass [22]; [23],70
same,"Plant response rating, Blackgrass",blackgrass [22]; [24],90
same,"Plant response rating, Ducksalad",ducksalad,100
same,Wheat plant response rating,wheat [6]; [25],50
same,"Plant response rating, Wheat",wheat [6],50
same,"Plant response rating, Rice",rice,15
same,"Plant response rating, Wheat",wheat [7]; [23],20
same,"Plant response rating, Wheat",wheat [7]; [24],60
same,"Plant response rating, Soybean",soybean [8]; [23],100
same,"Plant response rating, Soybean",soybean [8]; [24],100
same,"Plant response rating, Foxtail, Giant","foxtail, giant [9]; [23]",100
same,"Plant response rating, Foxtail, Giant","foxtail, giant [9]; [24]",100
same,Blackgrass plant response rating,"blackgrass [10]; 125 g ai/ha, postemergence, 10 days, 0 to 100 scale, 0 no effect, 100 complete control",70
same,"Plant response rating, Blackgrass","blackgrass [10]; 500 g ai/ha, postemergence, 10 days, visual injury, 0 to 100 scale (0 no effect, 100 complete control)",80
same,"Plant response rating, Oat, Wild","oat, wild [11]; [23]",70
same,"Plant response rating, Oat, Wild","oat, wild [11]; [24]",90
same,"Plant response rating, Corn",corn [12]; [23],20
same,"Plant response rating, Corn",corn [12]; [24],60
same,"Plant response rating, Ragweed",ragweed [13]; [23],40
same,"Plant response rating, Ragweed",ragweed [13]; [24],90
same,"Pigweed, Palmer plant response rating","pigweed, palmer [14]; [25]",70
same,"Plant response rating, Pigweed, Palmer","pigweed, palmer [14]",100
same,Soybean plant response rating,soybean [15]; [25],100
same,"Plant response rating, Soybean",soybean [15],100
same,"Oat, Wild plant response rating","oat, wild [16]; [25]",80
same,"Plant response rating, Oat, Wild","oat, wild [16]",90
same,Ragweed plant response rating,ragweed [17]; [25],60
same,"Plant response rating, Ragweed",ragweed [17],80
same,Goosegrass plant response rating,goosegrass [18]; [25],90
same,"Plant response rating, Goosegrass",goosegrass [18]; 500 g ai/ha,100
same,"Plant response rating, Sedge, Umbrella","sedge, umbrella",100
same,Corn plant response rating,corn [19]; [25],70
same,"Plant response rating, Corn",corn [19]; 500 g ai/ha,70
same,"Foxtail, Giant plant response rating","foxtail, giant [20]; [25]",90
same,"Plant response rating, Foxtail, Giant","foxtail, giant [20]; 500 g ai/ha",100
same,Kochia plant response rating,kochia [21]; [25],70
same,"Plant response rating, Kochia",kochia [21]; 500 g ai/ha,90

# Source: patent US20260262643A1, “HERBICIDAL BENZOXAZINES” (FMC CORPORATION, priority 2022, published 2026)
